Laboratory results from patent US20240270715A1, “INHIBITORS OF TRANSGLUTAMINASES” (ZEDIRA GMBH, priority 2021, published 2024).

Assays:
[1] = biological target: T1, recombinant human transglutaminase 2 (Homo sapiens, UniProt P21980); assay: Transglutaminase assay: incorporation of dansylcadaverine into dimethylcasein (DCC-assay); assay type: biochemical; settings: recombinant human TG2 10 nM, dansylcadaverine/dimethylcasein; read-out: IC50 TG2
T1 sequence (P21980 1-687): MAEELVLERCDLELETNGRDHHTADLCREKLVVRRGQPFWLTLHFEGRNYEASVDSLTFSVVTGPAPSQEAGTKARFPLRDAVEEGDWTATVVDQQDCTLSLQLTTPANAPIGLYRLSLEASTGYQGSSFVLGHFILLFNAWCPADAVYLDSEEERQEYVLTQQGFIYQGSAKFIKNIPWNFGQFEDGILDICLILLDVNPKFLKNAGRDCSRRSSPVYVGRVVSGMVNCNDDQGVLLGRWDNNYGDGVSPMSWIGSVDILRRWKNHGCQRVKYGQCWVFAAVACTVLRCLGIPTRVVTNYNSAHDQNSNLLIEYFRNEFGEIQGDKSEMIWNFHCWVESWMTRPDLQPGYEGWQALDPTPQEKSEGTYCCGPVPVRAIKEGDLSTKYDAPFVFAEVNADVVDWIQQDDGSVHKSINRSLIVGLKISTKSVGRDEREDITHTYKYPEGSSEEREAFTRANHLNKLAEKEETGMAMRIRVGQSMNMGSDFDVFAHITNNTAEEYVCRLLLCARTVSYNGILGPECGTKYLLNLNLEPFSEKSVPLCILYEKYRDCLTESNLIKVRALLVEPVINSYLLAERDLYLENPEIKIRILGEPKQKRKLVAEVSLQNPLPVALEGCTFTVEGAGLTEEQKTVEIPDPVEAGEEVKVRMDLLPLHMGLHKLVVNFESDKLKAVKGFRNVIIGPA
Outline: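 Recombinant human TG2 (10 nM final) incorporates dansylcadaverine (16.7 μM) into N,N-dimethylcasein (4 μM) in Tris-HCl buffer, pH 8.0, with 10 mM CaCl2 and 10 mM glutathione. Fluorescence (λex 330, λem 500 nm) followed 30 min. The slope between 20–30 min gives activity versus DMSO control, and IC50 comes from the concentration–activity plot.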

[2] = Log D by shake flask method (octanol / PBS pH 7.4, HPLC); assay type: physicochemical; settings: octanol / PBS pH 7.4, shake flask; read-out: logD
Outline: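 Shake-flask partitioning of compound between octanol and PBS at pH 7.4, with phase concentrations quantified by HPLC. The value reported is Log D.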

[3] = Caco-2 permeability assay (CacoReady kit); assay type: in vitro ADME; settings: human
Outline: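 Apparent permeability coefficients (Papp) were measured across Caco-2 cell barriers using a ready-to-use kit run per the supplier's protocol. Values serve as a predictor of oral/intestinal bioavailability.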

| Structure (SMILES) | IC50 [1] [nM] | logD [2] | Papp [3] [×10⁻⁶ cm/s] |
| --- | --- | --- | --- |
| CCNC(=O)C(=O)CC[C@H](NC(=O)c1snnc1CO)C(=O)Nc1cccn(CC2C3CC4CC(C3)CC2C4)c1=O (stereo partly drawn) [Compound I-84, (S)-N1-(1-(2-adamantylmethyl)-2-oxo-1,2-dihydropyridin-3-yl)-N6-ethyl-2-(4-(hydroxymethyl)-1,2,3-thiadiazole-5-carboxamido)-5-oxohexanediamide] | 150 to 600 | 1 to 3 | < 1 |
| CCNC(=O)C(=O)CC[C@H](NC(=O)c1c[nH]cc1C(C)(C)C)C(=O)Nc1cccn(CCC23CC4CC(CC(C4)C2)C3)c1=O [Compound I-85] | 600 to 3500 | 3 to 5 | 1 to 10 |
| CCNC(=O)C(=O)CC[C@H](NC(=O)c1cc(C#N)cn1C)C(=O)Nc1cccn(CCCC23CC4CC(CC(C4)C2)C3)c1=O [Compound I-86] | 600 to 3500 | 3 to 5 | 1 to 10 |
| CCNC(=O)C(=O)CC[C@H](NC(=O)c1oc2ccccc2c1C)C(=O)Nc1cccn(CC(=O)NC23CC(C2)C3)c1=O [Compound I-88, (S)-N1-(1-(2-(bicyclo[1.1.1]pentan-1-ylamino)-2-oxoethyl)-2-oxo-1,2-dihydropyridin-3-yl)-N6-ethyl-2-(3-methylbenzofuran-2-carboxamido)-5-oxohexanediamide] | < 150 | < 1 | 1 to 10 |
| CCNC(=O)C(=O)CC[C@H](NC(=O)c1coc(C(C)=O)n1)C(=O)Nc1cccn(CC(=O)NC23CC(C2)C3)c1=O [Compound I-89, (S)-2-(2-acetyloxazole-4-carboxamido)-N1-(1-(2-(bicyclo[1.1.1]pentan-1-ylamino)-2-oxoethyl)-2-oxo-1,2-dihydropyridin-3-yl)-N6-ethyl-5-oxohexanediamide] | < 150 | < 1 | < 1 |
| CCNC(=O)C(=O)CC[C@H](NC(=O)c1cnc(C(C)C)o1)C(=O)Nc1cccn(CC(=O)NC23CCC(C2)C3)c1=O [Compound I-90, (S)-N1-(1-(2-(bicyclo[2.1.1]hexan-1-ylamino)-2-oxoethyl)-2-oxo-1,2-dihydropyridin-3-yl)-N6-ethyl-2-(2-isopropyloxazole-5-carboxamido)-5-oxohexanediamide] | < 150 | < 1 | 1 to 10 |
| CCNC(=O)C(=O)CC[C@H](NC(=O)c1c(C)noc1C)C(=O)Nc1cccn(CC(=O)NC2C3CCCC2CC3)c1=O (stereo partly drawn) [Compound I-91, (2S)-N1-(1-(2-(bicyclo[3.2.1]octan-8-ylamino)-2-oxoethyl)-2-oxo-1,2-dihydropyridin-3-yl)-2-(3,5-dimethylisoxazole-4-carboxamido)-N6-ethyl-5-oxohexanediamide] | 150 to 600 | < 1 | 1 to 10 |
| CCNC(=O)C(=O)CC[C@H](NC(=O)c1cncnc1C)C(=O)Nc1cccn(CC(=O)NC2C3CC4CC2CC(C(=O)O)(C4)C3)c1=O (stereo partly drawn) [Compound I-92, (S)-N1-ethyl-N6-(1-(2-(5-carboxy-2-aminoadamantane)-2-oxoethyl)-2-oxo-1,2-dihydropyridin-3-yl)-5-(4-methylpyrimidine-5-carboxamido)-2-oxohexanediamide] | 150 to 600 | < 1 | < 1 |
| CCNC(=O)C(=O)CC[C@H](NC(=O)C1CCc2ccccc2C1)C(=O)Nc1cccn(CC(=O)NC2C3CC4CC2CC(C(=O)N(C)C)(C4)C3)c1=O (stereo partly drawn) [Compound I-93, (5S)-N1-ethyl-N6-(1-(2-(4-aminoadamantane-N,N-dimethyl-1-carboxamide)-2-oxoethyl)-2-oxo-1,2-dihydropyridin-3-yl)-2-oxo-5-(1,2,3,4-tetrahydronaphthalene-2-carboxamido)hexanediamide] | 150 to 600 | < 1 | < 1 |
| CCNC(=O)C(=O)CC[C@H](NC(=O)[C@@H]1CN2CCN1CC2)C(=O)Nc1cccn(CC(=O)NC2C3CC4CC(C3)CC2C4)c1=O (stereo partly drawn) [Compound I-94, (S)-2-((S)-1,4-diazabicyclo[2.2.2]octane-2-carboxamido)-N6-ethyl-N1-(1-(2-(2-adamantylamino)-2-oxoethyl)-2-oxo-1,2-dihydropyridin-3-yl)-5-oxohexanediamide] | 600 to 3500 | 1 to 3 | < 1 |
| CCNC(=O)C(=O)CC[C@H](NC(=O)c1c[nH]c2ccccc12)C(=O)Nc1cccn(CC(=O)NC2C3CC4CC(C3)CC2C4)c1=O (stereo partly drawn) [Compound I-95, (S)-N1-ethyl-5-(1H-indole-3-carboxamido)-N6-(1-(2-(2-adamantylamino)-2-oxoethyl)-2-oxo-1,2-dihydropyridin-3-yl)-2-oxohexanediamide] | 150 to 600 | 1 to 3 | 1 to 10 |
| CCNC(=O)C(=O)CC[C@H](NC(=O)c1csc2nc(C)cn12)C(=O)Nc1cccn(CC(=O)NC2C3CC4CC(C3)CC2C4)c1=O (stereo partly drawn) [Compound I-96, (S)-N1-ethyl-N6-(1-(2-(2-adamantylamino)-2-oxoethyl)-2-oxo-1,2-dihydropyridin-3-yl)-5-(6-methylimidazo[2,1-b]thiazole-3-carboxamido)-2-oxohexanediamide] | 600 to 3500 | 3 to 5 | < 1 |
| CCNC(=O)C(=O)CC[C@H](NC(=O)c1nc2ccccc2s1)C(=O)Nc1cccn(CC(=O)N[C@@H]2C[C@@H]3CC[C@H]2C3)c1=O [Compound I-97, (S)-2-(benzo[d]thiazole-2-carboxamido)-N1-(1-(2-((1S,2R,4R)-bicyclo[2.2.1]heptan-2-ylamino)-2-oxoethyl)-2-oxo-1,2-dihydropyridin-3-yl)-N6-ethyl-5-oxohexanediamide] | 150 to 600 | 1 to 3 | 1 to 10 |
| CCNC(=O)C(=O)CC[C@H](NC(=O)c1cn2ccsc2n1)C(=O)Nc1cccn(CC(=O)N[C@@H]2C[C@@H]3CC[C@H]2C3)c1=O [Compound I-98, (S)-N1-(1-(2-((1S,2R,4R)-bicyclo[2.2.1]heptan-2-ylamino)-2-oxoethyl)-2-oxo-1,2-dihydropyridin-3-yl)-N6-ethyl-2-(imidazo[2,1-b]thiazole-6-carboxamido)-5-oxohexanediamide] | 600 to 3500 | 1 to 3 | < 1 |
| CCNC(=O)C(=O)CC[C@H](NC(=O)c1cnc2ccc(OC(F)(F)F)cc2c1O)C(=O)Nc1cccn(CC(=O)N[C@@H]2C[C@@H]3CC[C@H]2C3)c1=O [Compound I-99, (S)-N1-(1-(2-((1S,2R,4R)-bicyclo[2.2.1]heptan-2-ylamino)-2-oxoethyl)-2-oxo-1,2-dihydropyridin-3-yl)-N6-ethyl-2-(4-hydroxy-6-(trifluoromethoxy)quinoline-3-carboxamido)-5-oxohexanediamide] | 600 to 3500 | 3 to 5 | < 1 |
| CCNC(=O)C(=O)CC[C@H](NC(=O)c1cc2ccccc2nn1)C(=O)Nc1cccn(CC(=O)NC23CC(C2)C3)c1=O [Compound I-100, (S)-N1-(1-(2-(bicyclo[1.1.1]pentan-1-ylamino)-2-oxoethyl)-2-oxo-1,2-dihydropyridin-3-yl)-2-(cinnoline-3-carboxamido)-N6-ethyl-5-oxohexanediamide] | 600 to 3500 | < 1 | < 1 |
| CCNC(=O)C(=O)CC[C@H](NC(=O)c1oc2ccccc2c1CC)C(=O)Nc1cccn(CC(=O)NC23CC(C2)C3)c1=O [Compound I-101, (S)-N1-(1-(2-(bicyclo[1.1.1]pentan-1-ylamino)-2-oxoethyl)-2-oxo-1,2-dihydropyridin-3-yl)-N6-ethyl-2-(3-ethylbenzofuran-2-carboxamido)-5-oxohexanediamide] | 150 to 600 | < 1 | 1 to 10 |
